Holding throughout (format): cell-based
For assay [1], the target named is T1, adenosine receptor subtype A1 (A1-Gα16 fusion construct) (Homo sapiens, UniProt P30542).
T1 construct: expressed in transfected cells; host or cells: CHO K1
T1 sequence (P30542 with tags, fused parts or gaps): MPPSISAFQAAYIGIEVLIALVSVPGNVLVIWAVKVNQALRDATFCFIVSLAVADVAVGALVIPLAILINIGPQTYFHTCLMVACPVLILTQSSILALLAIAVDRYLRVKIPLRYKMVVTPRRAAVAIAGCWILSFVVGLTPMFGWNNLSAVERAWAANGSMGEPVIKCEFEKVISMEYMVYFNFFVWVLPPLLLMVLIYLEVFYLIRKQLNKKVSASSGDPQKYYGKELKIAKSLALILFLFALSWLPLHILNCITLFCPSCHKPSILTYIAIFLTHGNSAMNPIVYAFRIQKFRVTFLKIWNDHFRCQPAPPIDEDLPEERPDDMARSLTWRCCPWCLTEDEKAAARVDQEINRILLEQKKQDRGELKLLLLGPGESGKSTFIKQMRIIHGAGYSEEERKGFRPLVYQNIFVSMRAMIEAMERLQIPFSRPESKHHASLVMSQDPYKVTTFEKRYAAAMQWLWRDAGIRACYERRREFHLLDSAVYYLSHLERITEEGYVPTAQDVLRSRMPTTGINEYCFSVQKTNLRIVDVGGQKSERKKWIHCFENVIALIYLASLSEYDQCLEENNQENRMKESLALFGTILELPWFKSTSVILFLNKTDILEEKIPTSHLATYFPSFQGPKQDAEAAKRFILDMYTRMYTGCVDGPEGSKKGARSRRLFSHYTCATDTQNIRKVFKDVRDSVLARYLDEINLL
The assay can be described thus: Indirect determination of adenosine antagonism via gene expression (luciferase reporter), A1. Particulars: CHO K1 cells, NFAT-TA-Luc reporter, inhibition of luciferase response to agonist 25 nM CPA. On the procedure: For determination of adenosine antagonism on the adenosine receptor subtype A1, once again CHO K1 cells are stably transfected, but this time with a Ca^2+-sensitive reporter construct (NFAT-TA-Luc; Clontech) and an A1-Gα16 fusion construct. This receptor chimera is, in contrast to the native A1 receptor (Gαi-coupling), coupled to phospholipase C. The luciferase is expressed here as a function of the cytosolic Ca^2+ concentration.
(§1) The permanent cell lines are cultured in DMEM/F12-Glutamax (Cat.No. 31331-028; Gibco) with 10% FCS (fetal calf serum) and various additives (10 ml/liter 1M HEPES (Cat.No. 15630; Gibco), 14 ml/liter MEM sodium pyruvate (Cat.No. 11360-039; Gibco) at 37° C. under 5% carbon dioxide, and split twice weekly.
(§2) For testing in the 384-well or 96-well plate format, the cells are sown at 2000 or 5000 cells/well in 25 or 50 μl/well test medium (OptiMEM-Glutamax with 2.5% activated-charcoal-treated FCS, Hyclone) and cultured at 37° C. under 5% carbon dioxide until substance testing. The A2a and A2b cells are sown, 24 h before substance testing, in OptiMEM with 2.5% activated-charcoal-treated FCS (Hyclone). The A1-Gα16 cells are sown, 48 h before substance testing, in OptiMEM-Glutamax with 2.5% activated-charcoal-treated FCS and additives. The substances are pipetted at a final concentration from 1×10^−5 M to 1×10^−11 M to the test cultures, with the DMSO content on the cells not exceeding 0.5%. NECA (5-N-ethyl-carboxamido-adenosine) at a final concentration of 30 nM, which roughly corresponds to the EC50 concentration, is used as agonist for the A2a and A2b cells. 25 nM CPA (N6-cyclopenty adenosine), which roughly corresponds to the EC7-5 concentration, is used as agonist for the A1-Ga16 cells. After adding the substances, the cell plates are incubated for 3-4 h at 37° C. under 5% carbon dioxide. Then 50 μl of a solution consisting to 50% of lysis reagent (Triton buffer, PAA Cat.No. T21-160) and to 50% of luciferase substrate solution (2.5 mM ATP, 0.5 mM luciferin, 0.1 mM coenzyme A, 10 mM Tricin, 1.35 mM magnesium sulfate, 15 mM DTT, pH 7.8) is added to the cells directly before measurement. The luciferase activity is detected with a luminescence reader. The IC50 values are determined, i.e. the concentrations at which the luciferase response, produced by the respective agonist, is inhibited to 50%. The IC50 values are calculated with the computer program GraphPad PRISM (Version 3.02). ZM241385, for the A2a and A2b cells, and DPCPX (1,3-dipropyl-8-cyclopentylxanthine), for the A1-Gα16 cells, are used as reference antagonist.
(In a reporter assay the amount or activity of a reporter protein is the signal.)

The target in assay [2] is T2, adenosine receptor subtype A2b (Homo sapiens, UniProt P29275).
T2 construct: expressed in transfected cells; host or cells: CHO K1
T2 sequence (P29275 1-332): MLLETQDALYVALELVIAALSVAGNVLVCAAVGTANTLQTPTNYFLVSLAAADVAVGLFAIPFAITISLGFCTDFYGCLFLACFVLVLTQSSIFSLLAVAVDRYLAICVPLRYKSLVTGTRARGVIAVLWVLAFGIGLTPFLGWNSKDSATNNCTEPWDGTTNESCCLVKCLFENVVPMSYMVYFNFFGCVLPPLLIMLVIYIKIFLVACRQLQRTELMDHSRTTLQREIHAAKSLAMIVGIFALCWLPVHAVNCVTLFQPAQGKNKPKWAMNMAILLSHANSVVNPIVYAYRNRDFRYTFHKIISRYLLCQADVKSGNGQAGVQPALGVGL
The assay can be described thus: Indirect determination of adenosine antagonism via gene expression (luciferase reporter), A2b. Particulars: CHO K1 cells, CRE luciferase reporter; inhibition of luciferase response to agonist 30 nM NECA.
Source text: (§3) Cells of the permanent line CHO K1 (Chinese Hamster Ovary) are stably transfected with a reporter construct (CRE luciferase) and the cDNA for the adenosine receptor subtypes A2a or A2b. A2a or A2b receptors are coupled via Gαs proteins to adenylate cyclase. Through receptor activation, the adenylate cyclase is activated and therefore the cAMP level in the cell is increased. Via the reporter construct, a cAMP-dependent promoter, the change in the cAMP level is coupled to luciferase expression.
as §1, §2

The target of assay [3] is T3, adenosine receptor subtype A2a (Homo sapiens, UniProt P29274).
T3 construct: expressed in transfected cells; host or cells: CHO K1
T3 sequence (P29274 whole entry): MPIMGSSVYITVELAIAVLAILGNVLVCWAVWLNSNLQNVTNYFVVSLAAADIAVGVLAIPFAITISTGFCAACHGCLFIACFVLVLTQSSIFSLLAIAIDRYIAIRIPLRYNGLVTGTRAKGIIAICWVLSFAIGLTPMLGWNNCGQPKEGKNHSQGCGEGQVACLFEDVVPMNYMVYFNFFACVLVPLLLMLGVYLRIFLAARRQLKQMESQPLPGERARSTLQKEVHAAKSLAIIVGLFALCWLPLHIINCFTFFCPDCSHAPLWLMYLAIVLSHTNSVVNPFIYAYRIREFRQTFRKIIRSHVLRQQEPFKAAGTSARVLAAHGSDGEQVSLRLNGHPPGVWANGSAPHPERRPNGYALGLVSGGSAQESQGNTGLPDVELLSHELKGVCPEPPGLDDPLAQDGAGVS
The assay can be described thus: Indirect determination of adenosine antagonism via gene expression (luciferase reporter), A2a. As to conditions: CHO K1 cells, CRE luciferase reporter; inhibition of luciferase response to agonist 30 nM NECA.
Source text: as §3, §1, §2

Some results are limits rather than exact numbers.

Here are results for 17 molecules from patent publication US20100099681A1, “SUBSTITUTED 5-AMINOPYRAZOLES AND USE THEREOF” (BAYER SCHERING PHARMA AKTIENGESELLSCHAFT, priority 2008, published 2010).

A word on the IC50: it is the concentration at which inhibition is half-maximal. A higher IC50 goes with a need for much substance.

Take `Cc1ccccc1-n1nc(C)c(-c2ccc3nccnc3c2)c1Nc1ccc(Cl)cc1C(=O)O` [Example 2, 2-{[4-(Quinoxalin-6-yl)-3-methyl-1-(2-methylphenyl)-1H-pyrazol-5-yl]amino}-5-chlorobenzoic acid]: the IC50 in assay [1] is 0.001 µM; in assay [2], more than 10 µM; in assay [3], more than 10 µM.
Regarding `Cc1ccccc1-n1nc(C(F)(F)F)c(-c2ccc3nccnc3c2)c1Nc1ccc(Cl)cc1C(=O)O` [Example 6, 2-{[4-(Quinoxalin-6-yl)-1-(2-methylphenyl)-3-(trifluoromethyl)-1H-pyrazol-5-yl]amino}-5-chlorobenzoic acid], the concentration for half-maximal inhibition (IC50) in assay [1] is 0.0095 µM; in assay [2], more than 10 µM; in assay [3], more than 10 µM.
As to `COc1ccc(Nc2c(-c3ccc4[nH]ncc4c3)c(C)nn2-c2ccccc2C)c(C(=O)O)c1` [Example 9, 2-{[4-(1H-Indazol-5-yl)-3-methyl-1-(2-methylphenyl)-1H-pyrazol-5-yl]amino}-5-methoxybenzoic acid], the IC50 in assay [1] was 0.0112 µM; in assay [2], more than 10 µM; in assay [3] it was more than 10 µM.
Regarding `COc1ccc(Nc2c(-c3ccc4scnc4c3)c(C)nn2-c2ccccc2C)c(C(=O)O)c1` [Example 11, 2-{[4-(1,3-Benzothiazol-5-yl)-3-methyl-1-(2-methylphenyl)-1H-pyrazol-5-yl]amino}-5-methoxybenzoic acid], the IC50 was 0.0117 µM in assay [1], more than 10 µM in assay [2] and more than 10 µM in assay [3].
In the case of `CCc1ccc(Nc2c(-c3ccc4nccnc4c3)c(C)nn2-c2ccccc2C)c(C(=O)O)c1` [Example 13, 2-{[4-(Quinoxalin-6-yl)-3-methyl-1-(2-methylphenyl)-1H-pyrazol-5-yl]amino}-5-ethylbenzoic acid], the results for the IC50 in assay [1], in assay [2] and in assay [3] were 0.001 µM, more than 10 µM and more than 10 µM, respectively.
Turning to `COc1ccc(Nc2c(-c3cc4nccnc4cc3F)c(C)nn2-c2ccccc2C)c(C(=O)O)c1` [Example 16, 2-{[4-(7-Fluoroquinoxalin-6-yl)-3-methyl-1-(2-methylphenyl)-1H-pyrazol-5-yl]amino}-5-methoxybenzoic acid], the IC50 in assay [1] was 0.0016 µM; in assay [2], more than 10 µM; in assay [3], more than 10 µM.
Turning to `COc1ccc(Nc2c(-c3ccc4ncnn4c3)c(C)nn2-c2ccccc2C)c(C(=O)O)c1` [Example 20, 5-Methoxy-2-{[3-methyl-1-(2-methylphenyl)-4-([1,2,4]triazolo[1,5-a]pyridin-6-yl)-1H-pyrazol-5-yl]amino}benzoic acid], the IC50 in assay [1] is 0.0019 µM; in assay [2], more than 10 µM; in assay [3] it was more than 10 µM.
In the case of `CCOc1ccccc1-n1nc(C)c(-c2ccc3nccnc3c2)c1Nc1ccc(OC)cc1C(=O)O` [Example 22, 2-{[4-(Quinoxalin-6-yl)-1-(2-ethoxyphenyl)-3-methyl-1H-pyrazol-5-yl]amino}-5-methoxybenzoic acid], the IC50 in assay [1] is 0.001 µM; in assay [2], more than 10 µM; in assay [3], more than 10 µM.
For `Cc1ccccc1-n1nc(C)c(-c2ccc3cccnc3c2)c1Nc1ccccc1C(=O)O` [Example 27, 2-{[4-(Quinolin-7-yl)-3-methyl-1-(2-methylphenyl)-1H-pyrazol-5-yl]amino}benzoic acid], the IC50 in assay [1] was 0.099 µM; in assay [2], more than 10 µM; in assay [3], more than 10 µM.
With `Cc1ccccc1-n1nc(C)c(-c2ccc3ncc(N(C)C)nc3c2)c1Nc1ccccc1C(=O)O` [Example 28, 2-({4-[3-(Dimethylamino)quinoxalin-6-yl]-3-methyl-1-(2-methylphenyl)-1H-pyrazol-5-yl}amino)benzoic acid], the IC50 in assay [1] is 0.019 µM.
The same measure, in the same setting: the result for `Cc1ccccc1-n1nc(C)c(-c2cc3nccnc3c(F)c2OCCO)c1Nc1ccccc1C(=O)O` [Example 31, 2-({4-[8-Fluoro-7-(2-hydroxyethoxy)quinoxalin-6-yl]-3-methyl-1-(2-methylphenyl)-1H-pyrazol-5-yl}amino)benzoic acid] reads 0.042 µM.
Same read-out and setting: the value for `COc1ccnc2ccc(-c3c(C)nn(-c4ccccc4C)c3Nc3ccccc3C(=O)O)cc12` [Example 32, 2-{[4-(4-Methoxyquinolin-6-yl)-3-methyl-1-(2-methylphenyl)-1H-pyrazol-5-yl]amino}benzoic acid] was 0.078 µM.
With `Cc1ccccc1-n1nc(C)c(-c2cc(F)c3nccnc3c2)c1Nc1ccccc1C(=O)O` [Example 33, 2-{[4-(8-Fluoroquinoxalin-6-yl)-3-methyl-1-(2-methylphenyl)-1H-pyrazol-5-yl]amino}benzoic acid], the values for the IC50 in assay [1], in assay [2] and in assay [3] were 0.0006 µM, more than 10 µM and more than 10 µM, respectively.
For `Cc1nn(-c2ccccc2)c(Nc2ccccc2C(=O)O)c1-c1cc2nccnc2c(F)c1F` [Example 36, 2-{[4-(7,8-Difluoroquinoxalin-6-yl)-3-methyl-1-phenyl-1H-pyrazol-5-yl]amino}benzoic acid], the figures for the IC50 in assay [1], in assay [2] and in assay [3] were 0.0007 µM, more than 10 µM and more than 10 µM, respectively.
For the molecule `Cc1ccccc1-n1nc(C)c(-c2ccn3nc(N)nc3c2)c1Nc1ccccc1C(=O)O` [Example 39, 2-{[4-(2-Amino [1,2,4]triazolo[1,5-a]pyridin-7-yl)-3-methyl-1-(2-methylphenyl)-1H-pyrazol-5-yl]amino}benzoic acid], the IC50 in assay [1] is 0.001 µM; in assay [2], more than 10 µM; in assay [3], more than 10 µM.
`Cc1ccccc1-n1nc(C)c(-c2cc(F)c3cncnc3c2)c1Nc1ccccc1C(=O)O` [Example 43, 2-{[4-(5-Fluoroquinazolin-7-yl)-3-methyl-1-(2-methylphenyl)-1H-pyrazol-5-yl]amino}benzoic acid]: the IC50 in assay [1] was 0.023 µM; in assay [2] it was more than 10 µM; in assay [3] it was more than 10 µM.
For `Cc1nn(-c2ccc(F)cc2F)c(Nc2ccccc2C(=O)O)c1-c1cc(F)c2nccnc2c1` [Example 46, 2-{[1-(2,4-Difluorophenyl)-4-(8-fluoroquinoxalin-6-yl)-3-methyl-1H-pyrazol-5-yl]amino}benzoic acid], the IC50 is 0.0085 µM in assay [1], more than 10 µM in assay [2] and more than 10 µM in assay [3].
